From PubChem BioAssay (NCI)
Several values for one entry are separate records, joined by “and”; a condition that tells them apart may be missing. Equal entries are not always repeated.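 Briefly, cells in 96-well plates were exposed to five compound concentrations for 48 h, and endpoints were estimated by linear interpolation. GI50 = concentration required for 50% inhibition of growth. Definition used: TGI = concentration required for complete inhibition of growth.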

Key:
Experiment in all cases: growth of human tumour cells (NCI), 48 h
[1] = test system: UO-31 renal
[2] = test system: HL-60(TB) leukemia
[3] = test system: UACC-62 melanoma
[4] = test system: SK-MEL-5 melanoma
[5] = test system: T-47D breast
[6] = test system: SR leukemia
[7] = test system: A549 NSCLC
[8] = test system: PC-3 prostate
[9] = test system: HT29 colon
[10] = test system: HCT-116 colon

SMILES | GI50 [1] [µM] | TGI [1] | GI50 [2] | TGI [2] [µM] | GI50 [3] [µM] | TGI [3] | GI50 [4] [nM] | TGI [4] | GI50 [5] [nM] | TGI [5] | GI50 [6] [nM] | TGI [6] [µM] | GI50 [7] [nM] | TGI [7] | GI50 [8] [nM] | TGI [8] | GI50 [9] [nM] | TGI [9] | GI50 [10] [nM] | TGI [10]
CN(C)CCCNC(=O)c1ccc2oc3cc4ccccc4c(=O)n3c2c1 | 18.3 | > 50 µM | 29800 nM | > 50 | > 50 | > 50 µM | 11200 | 28.8 µM | > 50000 | > 50 µM | 30800 | > 50 | 27600 | > 50 µM | > 50000 | > 50 µM | 15400 | 46.8 µM | 30800 | > 50 µM
CCCOc1ccc(-c2nc(-c3ccc(N=Cc4ccc(N(CCOS(C)(=O)=O)CCOS(C)(=O)=O)cc4C)cc3)cs2)cc1 | – | 48 µM | – | 54 | – | > 69.6 µM | – | > 71.3 µM | – | > 92.1 µM | – | 57 | – | 34.2 µM | – | 77.9 µM | – | > 73.9 µM | – | > 85.2 µM
C[C@H](N)C(=O)N[C@@H]1[C@H]2C(=C(O)C[C@@H](O)[C@@H]2O)C(=O)O[C@]1(C)C(Cl)Cl | 0.763 | 5.47 µM and 5.41 µM | 254 nM and 149 nM | – | 0.27 | 1.66 µM and 1.1 µM | 228 | 0.994 µM and 0.471 µM | 800 | 7.69 µM and 4.18 µM | 255 | 7.55 | 271 | 4.92 µM and 2.81 µM | – | 3.89 µM and 1.37 µM | 282 | 1.69 µM and 1.3 µM | 205 | 1.85 µM and 1.33 µM
CCNCCC1(CC)C(=O)NC(=O)NC1=O | – | > 100 µM | – | – | – | > 100 µM | – | > 100 µM | – | > 100 µM | – | > 100 | – | > 100 µM | – | > 100 µM | – | > 100 µM | – | > 100 µM
CNC(=O)c1c(NC(=O)c2ccc(C(F)(F)F)cc2)sc2c1CCC(=O)C2 | 0.302 | 1.4 µM | 363 nM | 2.09 | 0.617 | 2.23 µM | 1110 | 2.58 µM | 305 | 2.38 µM | 356 | > 100 | 1020 | 8.49 µM | 186 | 1.35 µM | 555 | 5.27 µM | 188 | 1.4 µM
CC(C)CCSC1=CC(=O)c2ccccc2C1=O | 0.627 | 4.18 µM | 325 nM | 0.943 | 4.02 | 14.8 µM | 723 | 20.1 µM | 1190 | 3.51 µM | 50.6 | 0.616 | 32600 | > 82.8 µM | 1960 | 6.85 µM | 23700 | 53.7 µM | 1420 | 2.89 µM
CO/[N+]([O-])=C\C(=O)N/C=C/C(=O)O | – | > 100 µM | – | > 100 | – | > 100 µM | – | > 100 µM | – | > 100 µM | – | > 100 | – | – | – | > 100 µM | – | – | – | > 100 µM
NC(=O)/C(=C\c1ccncc1)c1cccc2ccccc12 | – | > 100 µM | – | > 100 | – | > 100 µM | – | > 100 µM | – | > 100 µM | – | > 100 | – | > 100 µM | – | > 100 µM | – | > 100 µM | – | > 100 µM
CN[C@@H](C)C(=O)N[C@H]1CN(C(=O)CC(C)C)CC[C@H]2CC[C@@H](C(=O)NC(c3ccccc3)c3ccccc3)N2C1=O | > 100 | > 100 µM | 29100 nM | > 100 | > 100 | > 100 µM | 41900 | > 100 µM | > 100000 | > 100 µM | > 78000 | > 100 | > 100000 | > 100 µM | > 100000 | > 100 µM | 53200 | > 100 µM | > 100000 | > 100 µM
COc1c2ccoc2cc2oc(=O)ccc12 | – | – | – | > 100 | – | > 100 µM | – | > 100 µM | – | > 100 µM | – | > 100 | – | > 100 µM | – | > 100 µM | – | > 100 µM | – | > 100 µM
Cc1ncc(C(=O)Nc2ccc(CN3CCN(C)CC3)c(C(F)(F)F)c2)cc1C#Cc1cnc(N)c2cnccc12 | 0.289 | 1.15 µM | 38.3 nM | 1.03 | 0.019 | 0.105 µM | 80.5 | 0.604 µM | 317 | > 32.8 µM | 45.6 | 1.92 | 202 | 4.87 µM | 225 | 16.3 µM | 21 | 1.19 µM | 43.4 | 1.23 µM
COc1cc(-c2nc(NC(C)=O)sc2-c2ccnc(NCCNS(=O)(=O)c3ccccc3)n2)ccc1Cl | 4.46 | > 100 µM | 3140 nM | 7.45 | 2.61 | > 100 µM | 1580 | 4.25 µM | 2690 | > 100 µM | 2300 | > 100 | 4500 | > 100 µM | 2880 | > 100 µM | 2940 | > 100 µM | 3170 | 35.7 µM
N=C(N)/N=C(\N)c1c(-c2cc(O)ccc2O)nc2sccn12 | 22.3 | 47.9 µM | – | – | 44.6 | > 100 µM | > 100000 | > 100 µM | 20700 | 45.1 µM | 22700 | 87.2 | > 100000 | > 100 µM | 26700 | > 100 µM | 36500 | > 100 µM | 17300 | 35.9 µM
C#CCSc1n[nH]c(-c2ccco2)n1 | – | 32 µM | – | > 100 | – | > 100 µM | – | > 100 µM | – | > 100 µM | – | > 100 | – | > 100 µM | – | > 100 µM | – | > 100 µM | – | > 100 µM
O=C(CCCCCCCn1cc(-c2cccnc2)nn1)Nc1ccccc1-c1ccccc1 | 5.24 | 47 µM | 4740 nM | 29.1 | 9.68 | 47.3 µM | 2250 | 15.1 µM | 1440 | 28 µM | 3650 | 64.8 | 1150 | > 100 µM | 430 | 36.7 µM | 506 | > 100 µM | 36.1 | > 32.9 µM
